# In patent publication US20090023694A1, “Contraceptive” (GRUNENTHAL GMBH, priority 2006, published 2009):
# Test system: GABAA receptors
# Assay: Influence on the binding of muscimol to GABAA receptors (rat brain)
# Details: 5 nM [3H] muscimol, cerebral rat cortex membranes
# Method: The following tests for determining the influence of allopregnanolone, 3-α-OH-CMA and 3-β-OH-CMA on the binding of muscimol to GABAA receptors (in rats) are based on the publication of the experimental specifications of Snodgrass, S. R. (Nature, 1979, V273, p. 392-394). The corresponding disclosure is included herein as a reference and is part of the disclosure of the present application.
# Membrane preparations of cerebral rat cortex material were prepared. 5 nM [^3H] muscimol was used as a reference substance and 10 μM muscimol was used to determine the nonspecific binding. The substances ([^3H] muscimol, allopregnanolone) were each incubated at the receptor for 10 minutes at a temperature of approximately 4° C. The stock solution (5×10^−2 M) of allopregnanolone was prediluted in 75% DMSO at a ratio of 1:10 and was subsequently further diluted in 25% DMSO at a ratio of 1:5. The final concentration of allopregnanolone in the test was 1×10^−10 M, 1×10^−9 M, 1×10^−8 M, 1×10^−7 M, 1×10^−6 M and 1×10^−5 M respectively. The washing steps and the determination of radioactivity were carried out as previously described under point 1.
# The influence of 3-α-OH-CMA and 3-β-OH-CMA on the binding of muscimol to GABAA receptors (in rats) was determined in a similar manner to the method described previously. Instead of allopregnanolone, 3-α-OH-CMA or 3-β-OH-CMA were used.
smiles,measurement,setting,value
"CC(=O)O[C@]1(C(C)=O)CC[C@H]2[C@@H]3C=C(Cl)C4=C[C@H](O)CC[C@]4(C)[C@H]3CC[C@@]21C [3-α-OH-CMA, 3α-hydroxy-6-chloro-17α-acetoxy-4,6-pregnadien-20-one]",increase of binding of radioactively labelled muscimol,0.001 μM test substance,12%
"CC(=O)O[C@]1(C(C)=O)CC[C@H]2[C@@H]3C=C(Cl)C4=C[C@@H](O)CC[C@]4(C)[C@H]3CC[C@@]21C [3-β-OH-CMA, 3β-hydroxy-6-chloro-17α-acetoxy-4,6-pregnadien-20-one]",increase of binding of radioactively labelled muscimol,0.1 μM test substance,31%
"CC(=O)[C@H]1CC[C@H]2[C@@H]3CC[C@H]4C[C@H](O)CC[C@]4(C)[C@H]3CC[C@]12C [allopregnanolone, reference compound]",increase of binding of radioactively labelled muscimol,1 μM test substance,38%
